Results reported in patent US20230390289A1, “COMBINED USE OF IN10018 AND PLD” (INXMED (NANJING) CO., LTD., priority 2021, published 2023).

Experiment: Study IN10018-006 safety: adverse events (CTCAE)
Conditions: female, human, in vivo
Experimental: IN10018 in combination with pegylated liposomal doxorubicin (PLD) for the treatment of platinum-resistant ovarian cancer is currently being evaluated in a Phase Ib/II clinical study (IN10018-006) in China. The IN10018 was used as its tartrate, and the PLD was used as commercially available doxorubicin hydrochloride liposome injection (common name). Study subjects received IN10018 100 mg once daily (QD) orally combined with PLD 40 mg/m^2 by intravenous infusion once every 4 weeks (Q4W). A treatment cycle was 28 days.
By Jul. 30, 2021, a total of 26 patients with platinum-resistant ovarian cancer had been enrolled in the study. All subjects received at least one study drug treatment and were included in the safety analysis; 18 subjects had at least one post-baseline tumor imaging evaluation and were included in efficacy analysis.
By Jun. 22, 2021, 21 of the 22 subjects enrolled had adverse events (AEs), and according to the investigator's assessment, 20 of them had AEs related to IN10018. Regardless of the correlation, the system organ classes (SOC) of AE reported by at least 2 subjects were investigations (90.9%), gastrointestinal disorders (81.8%), renal and urinary disorders (72.7%), general disorders and administration site conditions (59.1%), metabolism and nutrition disorders (59.1%), infections and infestations (54.5%), blood and lymphatic system disorders (50.0%), respiratory, thoracic and mediastinal disorders (27.3%), musculoskeletal and connective tissue disorders (22.7%), skin and subcutaneous tissue disorders (18.2%), nervous system disorders (13.6%), cardiac disorders (18.2%) and psychiatric disorders (9.1%).
By Jun. 22, 2021, a total of 5 of the 22 subjects enrolled had serious adverse events (SAEs), of which 3 subjects reported SAEs related to IN10018: loss of appetite (grade 3, related to both IN10018 and PLD), constipation (grade 2, related to both IN10018 and PLD), abdominal distension (grade 3, related to both IN10018 and PLD), and elevated creatinine (grade 2, related to both IN10018 and PLD). No subject had adverse events leading to dose reduction of IN10018. Adverse events leading to discontinuation of study treatment were reported by 2 subjects, wherein loss of appetite (grade 3) leading to discontinuation in 1 subject was associated with both IN10018 and PLD. […] There were no adverse events leading to death in the study.

COc1cc(C(=O)NC2CCN(C)CC2)c(F)cc1Nc1ncc(C(F)(F)F)c(Oc2cccc3c2C(=O)N(C)C3)n1 [IN10018, 2-fluoro-5-methoxy-4-[(4-(2-methyl-3-oxo-2,3-dihydro-1H-isoindole-4-oxy)-5-trifluoromethyl-pyrimidin-2-yl)amino]-N-(1-methyl-piperidin-4-yl)benzamide]
SAE abdominal distension, grade: 3 grade | SAE constipation, grade: 2 grade | SAE elevated creatinine, grade: 2 grade | SAE loss of appetite, grade: 3 grade
